Assay [1] addresses T1, Recombinant IDO1 (Homo sapiens, UniProt P14902).
T1 construct: His tag (N); made in house; host or cells: E. coli
Nature of the assay: IDO1 enzymatic assay. In kind it is biochemical. The method, boiled down:
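N-terminally His-tagged enzyme from E. coli (50 nM) was incubated with compound, 1.3 mM D-tryptophan, 5 mM ascorbate, 6.25 μM methylene blue and 0.4 mg/mL catalase in 50 mM potassium phosphate pH 7.5, 0.1% BSA for 1.5 h at 24° C. N′-formylkynurenine formation was followed at 321 nm for 1 h; IC50 from rate slopes.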

The target of assay [2] is T2, Recombinant TDO (Homo sapiens, UniProt P48775).
T2 construct: His tag (C); made in house; host or cells: E. coli
T2 sequence (P48775 whole entry): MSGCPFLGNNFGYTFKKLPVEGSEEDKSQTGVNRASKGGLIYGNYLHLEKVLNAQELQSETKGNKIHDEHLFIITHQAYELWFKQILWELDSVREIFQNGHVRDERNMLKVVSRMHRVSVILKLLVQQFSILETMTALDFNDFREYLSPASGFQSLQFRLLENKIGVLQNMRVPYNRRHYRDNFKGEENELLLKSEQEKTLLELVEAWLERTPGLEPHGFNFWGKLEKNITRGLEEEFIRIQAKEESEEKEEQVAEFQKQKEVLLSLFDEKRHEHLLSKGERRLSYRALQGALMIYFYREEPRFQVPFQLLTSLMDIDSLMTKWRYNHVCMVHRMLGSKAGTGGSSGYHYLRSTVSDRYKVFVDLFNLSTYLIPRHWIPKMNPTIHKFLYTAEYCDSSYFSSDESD
Nature of the assay: TDO enzymatic assay. The assay is classed as biochemical. How it is done: Recombinant TDO was overexpressed and purified from E. coli cells with a C-terminal His tag. TDO enzymatic assay was performed using the same methodology as IDO1 enzymatic assay except that 100 nM TDO and 0.5 mM L-tryptophan (Km concentration) were used in the TDO assay.

The target of assay [3] is T3, cellular IDO1 in HeLa cells (Homo sapiens, UniProt P14902).
T3 construct: endogenous in cells; host or cells: HeLa cells (American Type Tissue Culture Collection), induced with human recombinant IFN-γ
T3 sequence (P14902 whole entry): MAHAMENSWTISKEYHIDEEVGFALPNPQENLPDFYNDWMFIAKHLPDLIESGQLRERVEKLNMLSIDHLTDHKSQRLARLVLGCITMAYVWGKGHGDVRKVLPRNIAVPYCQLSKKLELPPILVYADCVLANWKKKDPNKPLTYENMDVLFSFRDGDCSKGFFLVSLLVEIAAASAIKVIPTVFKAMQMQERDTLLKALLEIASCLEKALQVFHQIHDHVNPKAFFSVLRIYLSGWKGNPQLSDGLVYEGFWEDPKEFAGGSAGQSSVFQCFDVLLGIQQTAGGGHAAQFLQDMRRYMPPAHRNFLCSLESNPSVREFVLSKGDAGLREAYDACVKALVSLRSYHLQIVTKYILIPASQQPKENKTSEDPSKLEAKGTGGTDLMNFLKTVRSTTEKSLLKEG
Nature of the assay: HeLa cell-based IDO1 Kyn (kynurenine) production assay. The conditions noted are these: Table 1, 5-substituted imidazo[1,5-a]pyridines, IFN-γ 100 ng/mL, 48 hours. In a few lines:
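IFN-γ-induced HeLa cells (100 ng/mL) in phenol red-free DMEM with 0.4 mM L-Trp, compounds added together with IFN-γ, 48 h at 37 °C. Supernatant Kyn read at 480 nm after TCA precipitation and 4-(dimethylamino)benzaldehyde reaction. IC50 from four-parameter logistic fit.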

The mark [4] stands for this setting: Table 1, 5-substituted imidazo[1,5-a]pyridines, 50 nM IDO1, 1.3 mM D-tryptophan, read-out: Enzyme IC50 (nM) IDO1.
Setting [5] is: Table 1, 5-substituted imidazo[1,5-a]pyridines, 100 nM TDO, 0.5 mM L-tryptophan, read-out: Enzyme IC50 (nM) TDO.
[6] abbreviates: selectivity examples, read-out: enzymatic IC50 value to IDO1.
Where [7] appears, read: selectivity examples, read-out: enzymatic IC50 value to TDO.

Molecules are shown by their SMILES. Like-named read-outs stand apart in the source and are kept apart here.

T1 sequence (P14902 whole entry): as above

Usually IC50 stands for the concentration at which inhibition is half-maximal. In general, EC50 refers to the concentration that produces a half-maximal response. Lower therefore signals higher potency in that assay. Take `OC(c1c(Cl)ccc2cncn12)C1CCCCC1` (stereo not drawn) [Example A116, (6-chloroimidazo[1,5-a]pyridin-5-yl)(cyclohexyl)methanol]: the IC50 in assay [1] (setting [4]) came out at 7.5 nM; in assay [2] (setting [5]), 270 nM. This molecule also displayed an EC50 in assay [3] of 231 nM.
Consider `OC(CC1CCCCC1)c1c(Cl)ccc2cncn12` (stereo not drawn) [Example A117, 1-(6-chloroimidazo[1,5-a]pyridin-5-yl)-2-cyclohexylethan-1-ol], for which the IC50 is 28 nM in assay [1] (setting [6]) and 9700 nM in assay [2] (setting [7]). The molecule further showed an EC50 in assay [3] of 143 nM.
Take `OC(c1c(Br)ccc2cncn12)C1CCCCC1` (stereo not drawn) [Example A118, (6-bromoimidazo[1,5-a]pyridin-5-yl)(cyclohexyl)methanol]: the IC50 was 15 nM in assay [1] (setting [4]) and 5700 nM in assay [2] (setting [5]). In assay [3], the EC50 stood at 420 nM.
`OC(CC1CCCCC1)c1c(Br)ccc2cncn12` (stereo not drawn) [Example A119, 1-(6-bromoimidazo[1,5-a]pyridin-5-yl)-2-cyclohexylethan-1-ol]: the figures for the IC50 in assay [1] (setting [6]) and in assay [2] (setting [7]) were 22 nM and 12000 nM, respectively. Further, the EC50 in assay [3] was determined as 511 nM.
Take `OC(c1c(Br)ccc2cncn12)C1CCCC1` (stereo not drawn) [Example A120, (6-bromoimidazo[1,5-a]pyridin-5-yl)(cyclopentyl)methanol]: the results for the 50% inhibitory concentration (IC50) in assay [1] (setting [4]) and in assay [2] (setting [5]) were 37 nM and 3700 nM, respectively. Also, it took 1410 nM to reach a half-maximal effect in assay [3] (EC50).
Taken in the same sequence, the figures for `Cc1ccc2cncn2c1C(O)C1CCCCC1` (stereo not drawn) [Example A122, cyclohexyl(6-methylimidazo[1,5-a]pyridin-5-yl)methanol] were 28 nM, 430 nM and 268 nM.
In the case of `C#Cc1ccc2cncn2c1C(O)C1CCCCC1` (stereo not drawn) [Example A123, cyclohexyl(6-ethynylimidazo[1,5-a]pyridin-5-yl)methanol], the values for the IC50 in assay [1] (setting [4]) and in assay [2] (setting [5]) were 19 nM and 7900 nM, respectively. For the same molecule, a half-maximal response in assay [3] (EC50) required 556 nM.
The corresponding values for `OC(CC1CCCCC1)c1c(I)ccc2cncn12` (stereo not drawn) [Example A124, 2-cyclohexyl-1-(6-iodoimidazo[1,5-a]pyridin-5-yl)ethan-1-ol] are 19 nM, 8700 nM and 275 nM.
For the molecule `OC(c1c(I)ccc2cncn12)C1CCCCC1` (stereo not drawn) [Example A125, cyclohexyl(6-iodoimidazo[1,5-a]pyridin-5-yl)methanol], the IC50 in assay [1] (setting [4]) worked out at 31 nM; in assay [2] (setting [5]) it was 5600 nM. In assay [3], this molecule gave an EC50 of 205 nM.
Taken in the same sequence, the figures for `OC(c1c(C(F)(F)F)ccc2cncn12)C1CCCCC1` (stereo not drawn) [Example A126, cyclohexyl(6-(trifluoromethyl)imidazo[1,5-a]pyridine-5-yl)methanol] were 65 nM, 3100 nM and 291 nM.
The corresponding values for `OC(CC1CCCCC1)c1c(C(F)(F)F)ccc2cncn12` (stereo not drawn) [Example A127, 2-cyclohexyl-1-(6-(trifluoromethyl)imidazo[1,5-a]pyridine-5-yl)ethan-1-ol] are 44 nM, 3500 nM and 165 nM.
Turning to `OC(CCC1CCCCC1)c1c(Cl)ccc2cncn12` (stereo not drawn) [Example A128, 1-(6-chloroimidazo[1,5-a]pyridin-5-yl)-3-cyclohexylpropan-1-ol], the results for the IC50 in assay [1] (setting [4]) and in assay [2] (setting [5]) were 46 nM and 1100 nM, respectively. For the same molecule, it took 2160 nM to reach a half-maximal effect in assay [3] (EC50).
On to `OC(c1c(C2CC2)ccc2cncn12)C1CCCCC1` (stereo not drawn) [Example A129, cyclohexyl(6-cyclopropylimidazo[1,5-a]pyridin-5-yl)methanol], for which the IC50 in assay [1] (setting [4]) turned out to be 30 nM; in assay [2] (setting [5]) it was 4700 nM. Besides, the EC50 in assay [3] stood at 69.5 nM.
`OC(c1c(-c2ccccc2)ccc2cncn12)C1CCCCC1` (stereo not drawn) [Example A130, cyclohexyl(6-phenylimidazo[1,5-a]pyridin-5-yl)methanol]: the IC50 in assay [1] (setting [4]) was found to be 850 nM; in assay [2] (setting [5]) it was 1700 nM. The molecule also came in with an EC50 in assay [3] of 9150 nM.
Taken in the same sequence, the figures for `COc1ccc2cncn2c1C(O)C1CCCCC1` (stereo not drawn) [Example A131, cyclohexyl(6-methoxyimidazo[1,5-a]pyridin-5-yl)methanol] were 28 nM, 4100 nM and 939 nM.
Consider `OC(c1c(C(F)(F)F)ccc2cncn12)C1CCCC1` (stereo not drawn) [Example A133, cyclopentyl(6-(trifluoromethyl)imidazo[1,5-a]pyridin-5-yl)methanol], for which the figures for the IC50 in assay [1] (setting [4]) and in assay [2] (setting [5]) were 58 nM and 36000 nM, respectively. Besides, the EC50 in assay [3] worked out at 2040 nM.
Turning to `OC(c1c(I)ccc2cncn12)C1CC1` (stereo not drawn) [Example A134, cyclopropyl(6-iodoimidazo[1,5-a]pyridin-5-yl)methanol], the IC50 in assay [1] (setting [4]) came to 59 nM; in assay [2] (setting [5]), 26000 nM. Moreover, in assay [3], it took 8610 nM to reach a half-maximal effect (EC50).
Consider `CC(C)c1ccc2cncn2c1C(O)C1CCCCC1` (stereo not drawn) [Example A135, cyclohexyl(6-isopropylimidazo[1,5-a]pyridin-5-yl)methanol], for which the 50% inhibitory concentration (IC50) in assay [1] (setting [4]) was 39 nM; in assay [2] (setting [5]), 2700 nM. In addition, in assay [3], a half-maximal response (EC50) required 54 nM.
Taken in the same sequence, the figures for `C=C(C)c1ccc2cncn2c1C(O)C1CCCCC1` (stereo not drawn) [Example A136, cyclohexyl(6-(prop-1en-2-yl)imidazo[1,5-a]pyridin-5-yl)methanol] were 30 nM, 3300 nM and 1610 nM.
Taken in the same sequence, the figures for `OC(c1c(C2CC2)ccc2cncn12)C1CCCC1` (stereo not drawn) [Example A138, cyclopentyl(6-cyclopropylimidazo[1,5-a]pyridin-5-yl)methanol] were 25 nM, 6600 nM and 418 nM.
Taken in the same sequence, the figures for `OC(CC1CCCCC1)c1c(C2CC2)ccc2cncn12` (stereo not drawn) [Example A139] were 35 nM, 2400 nM and 435 nM.
Regarding `Cc1noc(C)c1-c1ccc2cncn2c1C(O)C1CCCCC1` (stereo not drawn) [Example A140, cyclohexyl(6-(3,5-dimethylisoxazol-4-yl)imidazo[1,5-a]pyridin-5-yl)methanol], the IC50 in assay [1] (setting [4]) came to 10000 nM; in assay [2] (setting [5]) it was 17000 nM. Further, in assay [3], the EC50 turned out to be 7810 nM.
`OC1CCCCC1C(O)c1c(C2CC2)ccc2cncn12` (stereo not drawn) [Example A141, 2-((6-cyclopropylimidazo[1,5-a]pyridin-5-yl)(hydroxy)methyl)cyclohexan-1-ol]: the IC50 stood at 51 nM in assay [1] (setting [4]) and 3900 nM in assay [2] (setting [5]). Moreover, a half-maximal response in assay [3] (EC50) required 3150 nM.
In the case of `OC1CCC(C(O)c2c(C3CC3)ccc3cncn23)CC1` (stereo not drawn) [Example A142, 4-((6-cyclopropylimidazo[1,5-a]pyridin-5-yl)(hydroxy)methyl)cyclohexan-1-ol], the IC50 amounted to 130 nM in assay [1] (setting [4]) and 64000 nM in assay [2] (setting [5]). The molecule further gave an EC50 in assay [3] of 574 nM.
Taken in the same sequence, the figures for `OC(c1c(Cl)c(Cl)cc2cncn12)C1CCCCC1` (stereo not drawn) [Example A143, cyclohexyl(6,7-dichloroimidazo[1,5-a]pyridin-5-yl)methanol] were 15 nM, 270 nM and 1110 nM.
On to `OC(CC1CCCCC1)c1c(Cl)c(Cl)cc2cncn12` (stereo not drawn) [Example A144, 2-cyclohexyl-1-(6,7-dichloroimidazo[1,5-a]pyridin-5-yl)ethan-1-ol], for which the IC50 was 32 nM in assay [1] (setting [4]) and 1500 nM in assay [2] (setting [5]). The EC50 in assay [3] was 1240 nM.
The corresponding values for `OC(c1cc(Cl)c(Cl)c2cncn12)C1CCCCC1` (stereo not drawn) [Example A146, cyclohexyl(7,8-dichloroimidazo[1,5-a]pyridin-5-yl)methanol] are 28 nM, 210 nM and 1250 nM.
On to `OC(c1c(Cl)c(Br)cc2cncn12)C1CCCCC1` (stereo not drawn) [Example A148, (7-bromo-6-chloroimidazo[1,5-a]pyridin-5-yl)(cyclohexyl)methanol], for which the IC50 in assay [1] (setting [4]) amounted to 39 nM; in assay [2] (setting [5]), 420 nM. In addition, the EC50 in assay [3] was determined as 1490 nM.
The corresponding values for `OC(c1c(Cl)c(Br)cc2cncn12)C1CCCC1` (stereo not drawn) [Example A149, (7-bromo-6-chloroimidazo[1,5-a]pyridin-5-yl)(cyclopentyl)methanol] are 35 nM, 160 nM and 2060 nM.
Taken in the same sequence, the figures for `OC(c1c(Cl)c(F)cc2cncn12)C1CCCCC1` (stereo not drawn) [Example A151, (6-chloro-7-fluoroimidazo[1,5-a]pyridin-5-yl)(cyclohexyl)methanol] were 39 nM, 600 nM and 415 nM.
On to `OC(CC1CCCCC1)c1c(Cl)c(F)cc2cncn12` (stereo not drawn) [Example A152, 1-(6-chloro-7-fluoroimidazo[1,5-a]pyridin-5-yl)-2-cyclohexylethan-1-ol], for which the IC50 in assay [1] (setting [4]) came out at 33 nM; in assay [2] (setting [5]) it was 7400 nM. The molecule further gave a half-maximal effective concentration (EC50) in assay [3] of 202 nM.
The corresponding values for `COc1cc(C(O)C2CCCCC2)n2cncc2c1Cl` (stereo not drawn) [Example A153, (8-chloro-7-methoxyimidazo[1,5-a]pyridin-5-yl)(cyclohexyl)methanol] are 500 nM, 1800 nM and 6760 nM.
